From ChEMBL document CHEMBL1201862, “PubChem BioAssay data set” (2004) come the findings set out here.

Broadly, the AC50 is the concentration giving half of the maximal activity seen. A word on the IC50: it is the concentration at which inhibition is half-maximal. One may read the CC50 as the concentration giving 50% cytotoxicity. For orientation: EC50 means the concentration that produces a half-maximal response.

Activity calls are given as the source filed them.

In data set [1] the test system is INS1. In words: INS-1E survival protection against cytokine death – cell-based, luminescence, retest, dose response (AID 449756).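 Also: cell death triggered by IL-1 beta plus TNF-alpha plus IFN-gamma mixture; protective hits raise ATP signal compared with cytokine alone wells.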 The class given is functional. To be noted: Rattus norvegicus.
In data set [2] the target is Beta-galactosidase (Escherichia coli, UniProt Q8VNN2). Briefly: detection-enzyme interference by beta-gal modulators – biochemical, E. coli enzyme, set 3, artefact control for CCR6 antagonist project, dose response (AID 504712). In kind it is functional.
The target of data set [3] is T1, C-C chemokine receptor type 6 (Homo sapiens, UniProt P51684).
T1 sequence (P51684 whole entry): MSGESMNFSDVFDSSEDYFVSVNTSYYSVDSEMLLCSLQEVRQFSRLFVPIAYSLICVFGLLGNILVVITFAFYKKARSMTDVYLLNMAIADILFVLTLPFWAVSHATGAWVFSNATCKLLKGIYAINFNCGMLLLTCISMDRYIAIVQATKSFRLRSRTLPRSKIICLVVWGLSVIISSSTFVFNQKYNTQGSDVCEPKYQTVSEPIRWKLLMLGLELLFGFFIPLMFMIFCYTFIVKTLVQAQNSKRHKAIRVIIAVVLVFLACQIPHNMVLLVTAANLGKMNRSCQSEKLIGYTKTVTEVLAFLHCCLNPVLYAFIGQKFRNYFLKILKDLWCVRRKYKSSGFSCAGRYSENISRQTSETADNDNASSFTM
Briefly: antagonism of CCR6 beta-arrestin recruitment – cell-based, luminescent beta-arrestin readout, dose response (AID 504728). The class given is functional.

Data set [4] can be described thus: cells. The class given is functional.
A short description of data set [5]: HepG2 cell cytotoxicity, dose response, cytotoxicity control for non-replicating M. tuberculosis project (AID 489018). The class given is functional. Particulars: Mycobacterium tuberculosis.
Data set [6] in a line: THP-1 cell cytotoxicity, dose response, cytotoxicity control for non-replicating M. tuberculosis project (AID 489025). The class given is functional.
Data set [7] in a line: Vero E6 cell cytotoxicity, dose response, cytotoxicity control for non-replicating M. tuberculosis project, secondary assay (AID 492998). In kind it is functional, VeroE6. Particulars: Vero C1008.
For data set [8], the target named is Cytochrome P450 2D6 (Homo sapiens, UniProt P10635).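 Also: CYP2D6 member of a cytochrome P450 panel assay.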
Data set [9] addresses Cytochrome P450 2C9 (Homo sapiens, UniProt P11712).
Data set [10] has as its target T2, Short transient receptor potential channel 4 (Mus musculus, UniProt Q9QUQ5).
T2 sequence (Q9QUQ5 whole entry): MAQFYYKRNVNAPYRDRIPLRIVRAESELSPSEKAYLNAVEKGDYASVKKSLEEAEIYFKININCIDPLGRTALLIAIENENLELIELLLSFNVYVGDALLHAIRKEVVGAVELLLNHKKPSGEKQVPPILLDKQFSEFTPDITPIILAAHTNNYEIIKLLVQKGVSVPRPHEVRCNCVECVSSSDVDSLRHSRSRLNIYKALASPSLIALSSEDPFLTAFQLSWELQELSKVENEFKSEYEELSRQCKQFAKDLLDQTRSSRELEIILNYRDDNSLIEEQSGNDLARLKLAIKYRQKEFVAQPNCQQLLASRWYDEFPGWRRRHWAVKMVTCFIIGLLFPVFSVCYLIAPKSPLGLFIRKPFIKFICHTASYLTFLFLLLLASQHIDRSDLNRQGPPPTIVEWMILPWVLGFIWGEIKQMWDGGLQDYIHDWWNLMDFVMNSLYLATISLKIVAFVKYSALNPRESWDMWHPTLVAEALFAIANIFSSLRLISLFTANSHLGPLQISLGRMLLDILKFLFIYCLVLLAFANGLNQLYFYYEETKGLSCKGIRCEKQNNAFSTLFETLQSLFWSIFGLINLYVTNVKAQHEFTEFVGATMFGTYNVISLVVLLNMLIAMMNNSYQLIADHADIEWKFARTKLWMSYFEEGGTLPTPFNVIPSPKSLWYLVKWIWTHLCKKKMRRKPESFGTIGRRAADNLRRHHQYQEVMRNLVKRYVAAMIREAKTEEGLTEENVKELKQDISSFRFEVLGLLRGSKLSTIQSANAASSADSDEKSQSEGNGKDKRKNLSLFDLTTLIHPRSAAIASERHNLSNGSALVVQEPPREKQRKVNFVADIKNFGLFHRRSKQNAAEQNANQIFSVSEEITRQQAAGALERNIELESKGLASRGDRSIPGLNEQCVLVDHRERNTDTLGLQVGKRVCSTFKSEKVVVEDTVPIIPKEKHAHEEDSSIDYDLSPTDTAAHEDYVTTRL
In words: potentiation of DAMGO-evoked TRPC4 calcium signal – cell-based, HEK293 TRPC4/mu-opioid, Fluo-4 calcium, EC20 DAMGO, dose response (AID 434941).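 Also: HEK293 cells coexpressing TRPC4 and mu opioid receptor stimulated by EC20 DAMGO.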 The class given is functional.

The target in data set [11] is T3, Coagulation factor XII (Homo sapiens, UniProt P00748).
T3 sequence (P00748 whole entry): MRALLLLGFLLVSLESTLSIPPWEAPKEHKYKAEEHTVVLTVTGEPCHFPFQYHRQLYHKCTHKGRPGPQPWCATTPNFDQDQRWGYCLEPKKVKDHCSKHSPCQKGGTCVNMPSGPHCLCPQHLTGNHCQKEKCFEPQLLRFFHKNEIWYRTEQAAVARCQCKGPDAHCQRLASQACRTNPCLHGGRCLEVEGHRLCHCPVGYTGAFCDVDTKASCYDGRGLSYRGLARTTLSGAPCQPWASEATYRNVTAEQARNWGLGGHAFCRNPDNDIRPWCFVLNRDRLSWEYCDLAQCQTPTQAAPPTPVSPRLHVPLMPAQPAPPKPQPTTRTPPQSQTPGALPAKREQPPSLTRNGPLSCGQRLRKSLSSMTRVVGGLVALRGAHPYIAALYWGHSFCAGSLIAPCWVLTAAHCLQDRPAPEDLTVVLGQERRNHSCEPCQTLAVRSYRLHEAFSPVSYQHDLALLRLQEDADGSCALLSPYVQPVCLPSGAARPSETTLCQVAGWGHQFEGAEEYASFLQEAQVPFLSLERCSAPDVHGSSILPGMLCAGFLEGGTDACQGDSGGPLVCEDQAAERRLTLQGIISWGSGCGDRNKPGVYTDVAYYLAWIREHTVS
Briefly: activated coagulation factor XII inhibitor potency, concentration-effect curve, cell-free (AID 716). The class given is functional.

Beta-galactosidase, sequence (Q8VNN2 whole entry): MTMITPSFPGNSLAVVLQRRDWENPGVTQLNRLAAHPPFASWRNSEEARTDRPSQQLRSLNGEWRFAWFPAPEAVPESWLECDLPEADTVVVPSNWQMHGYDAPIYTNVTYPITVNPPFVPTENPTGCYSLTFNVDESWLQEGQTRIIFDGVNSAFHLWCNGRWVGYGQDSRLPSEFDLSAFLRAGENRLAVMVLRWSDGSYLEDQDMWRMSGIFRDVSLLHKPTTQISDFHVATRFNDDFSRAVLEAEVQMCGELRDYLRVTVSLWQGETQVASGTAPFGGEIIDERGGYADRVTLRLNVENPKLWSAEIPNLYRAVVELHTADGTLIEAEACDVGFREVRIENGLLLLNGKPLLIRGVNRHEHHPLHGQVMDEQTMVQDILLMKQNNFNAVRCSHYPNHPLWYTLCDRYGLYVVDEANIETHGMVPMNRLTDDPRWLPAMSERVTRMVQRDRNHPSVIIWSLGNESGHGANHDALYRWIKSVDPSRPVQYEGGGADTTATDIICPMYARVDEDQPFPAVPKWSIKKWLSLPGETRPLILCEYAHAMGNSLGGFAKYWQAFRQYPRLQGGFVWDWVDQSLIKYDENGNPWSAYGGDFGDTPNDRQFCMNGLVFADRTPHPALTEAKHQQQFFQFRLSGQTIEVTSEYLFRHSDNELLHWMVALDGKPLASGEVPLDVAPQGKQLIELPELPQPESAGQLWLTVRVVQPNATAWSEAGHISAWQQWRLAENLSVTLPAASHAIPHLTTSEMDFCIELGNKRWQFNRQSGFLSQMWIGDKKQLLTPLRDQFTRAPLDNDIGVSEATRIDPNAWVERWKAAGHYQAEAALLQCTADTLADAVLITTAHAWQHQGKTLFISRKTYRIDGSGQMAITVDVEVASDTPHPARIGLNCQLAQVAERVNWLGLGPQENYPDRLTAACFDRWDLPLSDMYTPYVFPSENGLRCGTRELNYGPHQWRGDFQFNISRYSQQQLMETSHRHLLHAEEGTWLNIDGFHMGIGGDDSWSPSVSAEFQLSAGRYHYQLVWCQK
Cytochrome P450 2D6, sequence (P10635 whole entry): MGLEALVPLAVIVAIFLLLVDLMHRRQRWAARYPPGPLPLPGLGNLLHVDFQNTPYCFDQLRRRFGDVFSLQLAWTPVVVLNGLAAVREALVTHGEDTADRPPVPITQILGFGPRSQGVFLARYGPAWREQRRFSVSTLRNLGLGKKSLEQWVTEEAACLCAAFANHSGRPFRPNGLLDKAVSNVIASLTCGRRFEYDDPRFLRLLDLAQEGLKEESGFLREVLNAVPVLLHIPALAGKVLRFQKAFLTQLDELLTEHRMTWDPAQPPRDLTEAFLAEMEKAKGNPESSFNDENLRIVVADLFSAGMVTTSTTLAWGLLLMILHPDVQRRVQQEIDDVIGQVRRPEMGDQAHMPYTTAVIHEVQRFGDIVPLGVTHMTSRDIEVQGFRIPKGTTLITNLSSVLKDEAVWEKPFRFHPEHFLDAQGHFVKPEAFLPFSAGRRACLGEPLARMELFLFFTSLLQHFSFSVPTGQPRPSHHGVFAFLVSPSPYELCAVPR
Cytochrome P450 2C9, sequence (P11712 whole entry): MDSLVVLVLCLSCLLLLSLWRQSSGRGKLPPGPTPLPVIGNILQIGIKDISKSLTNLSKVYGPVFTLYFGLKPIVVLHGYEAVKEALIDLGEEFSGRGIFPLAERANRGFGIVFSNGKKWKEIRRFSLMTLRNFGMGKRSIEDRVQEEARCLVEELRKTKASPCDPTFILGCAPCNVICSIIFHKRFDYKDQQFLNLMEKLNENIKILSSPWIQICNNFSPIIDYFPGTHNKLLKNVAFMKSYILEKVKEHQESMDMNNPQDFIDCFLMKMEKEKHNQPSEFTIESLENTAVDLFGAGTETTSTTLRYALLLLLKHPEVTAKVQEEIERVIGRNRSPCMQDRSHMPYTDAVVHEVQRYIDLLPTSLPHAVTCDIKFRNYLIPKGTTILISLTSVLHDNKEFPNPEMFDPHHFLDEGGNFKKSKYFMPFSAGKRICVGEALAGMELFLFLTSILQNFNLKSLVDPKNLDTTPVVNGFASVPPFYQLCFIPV

For the compound `Cc1cc(N/N=C/c2ccc(F)cc2)nc(-n2nc(C)cc2C)n1`, the AC50 in data set [1] was 2.81 µM (active). Also, the IC50 in data set [2] was > 66.6 µM (inactive); in data set [3] it was > 66.6 µM (inactive); in data set [4], < 0.1 µM (active). Moreover, the CC50 in [5] was > 20 µM (active); in [6] it was 10.8 µM (active); in data set [7] it was 15.6 µM (active).

With `COc1ccc2[nH]cc(CCN(C)C)c2c1` [MEBUFOTENIN], the figures for the AC50 in data set [8] and in data set [9] were 20 µM (inconclusive) and “inconclusive”, respectively. The 50% effective concentration (EC50) in data set [10] was 0.67 µM (active).

Turning to `Cc1cc(N2CCCC2=O)cc(C)c1S(=O)(=O)NCCOc1ccccc1`, the IC50 in data set [11] is > 50 µM (inactive).

In the case of `CCOCCn1c(SCCCc2ccccc2)nc2c1c(=O)[nH]c(=O)n2C`, the IC50 in data set [11] was > 50 µM (inactive).
